Measurements reported in patent US20230265151A1, “GIP/GLP1 CO-AGONIST COMPOUNDS” (priority 2020, published 2023).
Where two headings read alike, the source gives them in different places. *1 amine or outer side, *2 acyl side, *3 side chain or, on linkers, in order; H or OH if unused. Where a SMILES comes first, the peptide text is derived from it. Side-chain parts run from the residue outwards. [ ]: non-standard residue; d: D form. The star is where a group is joined. αMePhe(2-F) = C[C@](N)(Cc1ccccc1F)C(=O)O; γGlu = O=C(O)[C@H](CCC(=O)[*:2])N[*:1]; C14 diacid = O=C(O)CCCCCCCCCCCCC(=O)*; αMeY = C[C@](N)(Cc1ccc(O)cc1)C(=O)O; αMeL = CC(C)C[C@](C)(N)C(=O)O; Orn = NCCC[C@H](N)C(=O)O; AEEA = NCCOCCOCC(=O)O; Aib = CC(C)(N)C(=O)O

How the values were obtained:
Assay type in all cases: cell-based
hGIPR = target: T1, hGIPR (Homo sapiens, UniProt P48546); assay: Functional cAMP formation (HTRF) in HEK-293 clonal cells expressing hGIPR, 0.1% bovine casein, without or with 1.0% human serum albumin; conditions: for Emax: percent of maximal response to GIP(1-42)NH2
T1 construct: expressed in transfected cells
T1 sequence (P48546 22-466): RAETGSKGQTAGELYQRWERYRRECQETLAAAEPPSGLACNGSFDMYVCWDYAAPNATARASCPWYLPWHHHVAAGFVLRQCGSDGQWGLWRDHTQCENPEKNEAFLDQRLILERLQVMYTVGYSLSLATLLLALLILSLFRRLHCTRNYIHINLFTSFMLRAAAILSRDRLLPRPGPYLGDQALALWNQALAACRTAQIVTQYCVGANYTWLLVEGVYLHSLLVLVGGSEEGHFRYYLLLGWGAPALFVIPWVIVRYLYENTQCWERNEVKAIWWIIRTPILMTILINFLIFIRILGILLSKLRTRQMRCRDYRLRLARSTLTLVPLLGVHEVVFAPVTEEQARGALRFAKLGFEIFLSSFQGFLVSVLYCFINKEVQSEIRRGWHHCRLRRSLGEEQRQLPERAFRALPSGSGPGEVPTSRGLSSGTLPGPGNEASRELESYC
Summary of the method: (§1)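 Readings of the HTRF 665/620 nm ratio, which falls as cAMP rises, were converted to nM cAMP using a standard curve after 30 min peptide exposure at 37° C.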

hGCGR = target: T2, hGCGR (Homo sapiens, UniProt P47871); assay: Functional cAMP formation (HTRF) in HEK-293 clonal cells expressing hGCGR, 0.1% bovine casein, without or with 1.0% human serum albumin; conditions: 37° C.
T2 construct: expressed in transfected cells
Summary of the method: as §1

hGLP-1R = hGLP-1R (Homo sapiens, UniProt P43220); assay: Functional cAMP formation (HTRF) in HEK-293 clonal cells expressing hGLP-1R, 0.1% bovine casein, without or with 1.0% human serum albumin; set-up: expressed in transfected cells; conditions: for Emax: percent of maximal response to GLP-1(7-36)NH2; for EC50: cAMP, 0.1% bovine casein (no human serum albumin), geometric mean
Summary of the method: as §1

[1] = HEK293, cAMP, 37° C., 0.1% bovine casein, arithmetic mean, read-out: hGIPR Emax, % ± SEM
[2] = cAMP, 37° C., 0.1% bovine casein (no human serum albumin), geometric mean, read-out: hGIPR EC50, nM (SEM, n)
[3] = cAMP, 0.1% bovine casein (no human serum albumin), geometric mean, read-out: hGCGR EC50, nM (SEM, n)
[4] = HEK293, cAMP, 37° C., 0.1% bovine casein, arithmetic mean, read-out: hGLP-1R Emax, % ± SEM
[5] = 37° C., read-out: hGLP-1R EC50, nM (SEM, n)

T2 sequence (P47871 26-477): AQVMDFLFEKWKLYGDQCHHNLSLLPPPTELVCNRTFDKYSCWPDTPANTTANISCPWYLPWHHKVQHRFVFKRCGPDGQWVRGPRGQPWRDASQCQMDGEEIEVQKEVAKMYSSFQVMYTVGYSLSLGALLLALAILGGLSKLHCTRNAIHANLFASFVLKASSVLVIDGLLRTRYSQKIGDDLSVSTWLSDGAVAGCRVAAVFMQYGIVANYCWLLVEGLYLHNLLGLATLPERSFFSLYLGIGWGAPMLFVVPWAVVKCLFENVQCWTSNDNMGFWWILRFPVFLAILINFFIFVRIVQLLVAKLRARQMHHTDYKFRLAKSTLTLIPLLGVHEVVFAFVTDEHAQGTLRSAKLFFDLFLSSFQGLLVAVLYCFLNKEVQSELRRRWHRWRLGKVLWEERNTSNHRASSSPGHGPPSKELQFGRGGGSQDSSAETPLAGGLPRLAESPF
Sequence of hGLP-1R (P43220 24-463): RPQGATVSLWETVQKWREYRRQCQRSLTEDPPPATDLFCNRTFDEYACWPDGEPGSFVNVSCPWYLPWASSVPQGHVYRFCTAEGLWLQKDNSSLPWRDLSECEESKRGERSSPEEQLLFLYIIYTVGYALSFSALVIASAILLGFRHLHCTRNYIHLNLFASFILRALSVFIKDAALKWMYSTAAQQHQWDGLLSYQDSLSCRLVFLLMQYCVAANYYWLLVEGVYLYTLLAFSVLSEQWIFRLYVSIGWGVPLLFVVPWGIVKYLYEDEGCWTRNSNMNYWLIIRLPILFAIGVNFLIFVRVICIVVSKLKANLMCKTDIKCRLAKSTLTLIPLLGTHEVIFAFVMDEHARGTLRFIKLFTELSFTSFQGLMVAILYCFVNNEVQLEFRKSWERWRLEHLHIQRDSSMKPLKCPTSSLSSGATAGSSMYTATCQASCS

CC[C@H](C)[C@H](NC(=O)[C@H](CCCN)NC(=O)[C@H](CC(=O)O)NC(=O)[C@H](CC(C)C)NC(=O)[C@](C)(CC(C)C)NC(=O)[C@@H](NC(=O)C(C)(C)NC(=O)[C@@H](NC(=O)[C@H](CC(=O)O)NC(=O)[C@H](CO)NC(=O)[C@@H](NC(=O)[C@](C)(Cc1ccccc1F)NC(=O)[C@@H](NC(=O)CNC(=O)[C@H](CCC(=O)O)NC(=O)C(C)(C)NC(=O)[C@@H](N)Cc1ccc(O)cc1)[C@@H](C)O)[C@@H](C)O)C(C)C)[C@@H](C)CC)C(=O)N[C@@H](C)C(=O)N[C@@H](CCC(N)=O)C(=O)NC(C)(C)C(=O)N[C@@H](CCC(=O)O)C(=O)N[C@@H](Cc1ccccc1)C(=O)N[C@H](C(=O)N[C@@H](CCCCNC(=O)COCCOCCNC(=O)COCCOCCNC(=O)COCCOCCNC(=O)CC[C@H](NC(=O)CCCCCCCCCCCCC(=O)O)C(=O)O)C(=O)N[C@@](C)(Cc1ccc(O)cc1)C(=O)N[C@@H](CC(C)C)C(=O)N[C@H](C(=O)N[C@@H](CCCCNC(=O)COCCOCCNC(=O)COCCOCCNC(=O)COCCOCCNC(=O)CC[C@H](NC(=O)CCCCCCCCCCCCC(=O)O)C(=O)O)C(=O)NCC(=O)NCC(=O)N1CCC[C@H]1C(=O)N[C@@H](CO)C(=O)N[C@@H](CO)C(=O)NCC(=O)N[C@@H](C)C(=O)N1CCC[C@H]1C(=O)N1CCC[C@H]1C(=O)N1CCC[C@H]1C(=O)N[C@@H](CO)C(N)=O)[C@@H](C)CC)[C@@H](C)CC [Example 344]
Emax (hGIPR; HEK293, cAMP, 37° C., 0.1% bovine casein and 1.0% human serum albumin, read-out: hGIPR Emax, % ± SEM): 87.3% | Emax (hGIPR; [1]): 97.9% | EC50 (hGIPR; [2]): 0.0174 nM | EC50 (hGIPR; cAMP, 37° C., 0.1% bovine casein and 1.0% human serum albumin, geometric mean (SEM, n), read-out: hGIPR EC50, nM (SEM, n)): 6.78 nM | EC50 (hGCGR; [3]): > 9950 nM | EC50 (hGCGR; cAMP, 0.1% bovine casein and 1.0% human serum albumin, geometric mean (SEM, n), read-out: hGCGR EC50, nM (SEM, n)): > 9950 nM | Emax (hGLP-1R; HEK293, cAMP, 37° C., 0.1% bovine casein and 1.0% human serum albumin, read-out: hGLP-1R Emax, % ± SEM): 96.5% | Emax (hGLP-1R; [4]): 100% | EC50 (hGLP-1R; [5]): 0.336 nM

CCCC[C@H](NC(=O)[C@H](CC(=O)O)NC(=O)[C@H](CO)NC(=O)[C@@H](NC(=O)[C@](C)(Cc1ccccc1F)NC(=O)[C@@H](NC(=O)CNC(=O)[C@H](CCC(=O)O)NC(=O)C(C)(C)NC(=O)[C@@H](N)Cc1ccc(O)cc1)[C@@H](C)O)[C@@H](C)O)C(=O)N[C@@H](CO)C(=O)N[C@H](C(=O)N[C@@](C)(CC(C)C)C(=O)N[C@@H](CC(C)C)C(=O)N[C@@H](CC(=O)O)C(=O)N[C@@H](CCCN)C(=O)N[C@H](C(=O)N[C@@H](C)C(=O)N[C@@H](CCC(N)=O)C(=O)NC(C)(C)C(=O)N[C@@H](CCC(=O)O)C(=O)N[C@@H](Cc1ccccc1)C(=O)N[C@H](C(=O)N[C@@H](CCCCNC(=O)COCCOCCNC(=O)COCCOCCNC(=O)CC[C@H](NC(=O)CCCCCCCCCCCCC(=O)O)C(=O)O)C(=O)N[C@@](C)(Cc1ccc(O)cc1)C(=O)N[C@@H](CC(C)C)C(=O)N[C@H](C(=O)N[C@@H](CCCCNC(=O)COCCOCCNC(=O)COCCOCCNC(=O)CC[C@H](NC(=O)CCCCCCCCCCCCC(=O)O)C(=O)O)C(=O)NCC(=O)NCC(=O)N1CCC[C@H]1C(=O)N[C@@H](CO)C(=O)N[C@@H](CO)C(=O)NCC(=O)N[C@@H](C)C(=O)N1CCC[C@H]1C(=O)N1CCC[C@H]1C(=O)N1CCC[C@H]1C(=O)N[C@@H](CO)C(N)=O)[C@@H](C)CC)[C@@H](C)CC)[C@@H](C)CC)[C@@H](C)CC [Example 269]
EC50 (hGIPR; 0.1% bovine casein and 1.0% human serum albumin, 37° C., geometric mean, read-out: hGIPR EC50, nM (SEM, n)): 2.65 nM | Emax (hGIPR; HEK293, 0.1% bovine casein and 1.0% human serum albumin, 37° C., read-out: hGIPR Emax, % ± SEM): 87.3% | Emax (hGIPR; [1]): 95.3% | EC50 (hGCGR; 0.1% bovine casein and 1.0% human serum albumin, geometric mean, read-out: hGCGR EC50, nM (SEM, n)): > 9950 nM | EC50 (hGCGR; [3]): > 9950 nM | Emax (hGLP-1R; HEK293, 0.1% bovine casein and 1.0% human serum albumin, 37° C., read-out: hGLP-1R Emax, % ± SEM): 105% | Emax (hGLP-1R; [4]): 96.5% | EC50 (hGLP-1R; [5]): 1.72 nM

CC[C@H](C)[C@H](NC(=O)[C@H](CC(C)C)NC(=O)[C@](C)(Cc1ccc(O)cc1)NC(=O)[C@@H](CCC(=O)O)NC(=O)[C@@H](NC(=O)[C@H](Cc1ccccc1)NC(=O)[C@H](CCCN)NC(=O)C(C)(C)NC(=O)[C@H](CCC(N)=O)NC(=O)[C@H](C)NC(=O)[C@H](CCCCNC(=O)COCCOCCNC(=O)COCCOCCNC(=O)CC[C@H](NC(=O)CCCCCCCCCOc1ccc(C(=O)O)cc1)C(=O)O)NC(=O)[C@H](CCCN)NC(=O)[C@H](CC(=O)O)NC(=O)[C@H](CC(C)C)NC(=O)[C@](C)(CC(C)C)NC(=O)[C@@H](NC(=O)C(C)(C)NC(=O)[C@@H](NC(=O)[C@H](CC(=O)O)NC(=O)[C@H](CO)NC(=O)[C@@H](NC(=O)[C@](C)(Cc1ccccc1F)NC(=O)[C@@H](NC(=O)CNC(=O)[C@H](CCC(=O)O)NC(=O)C(C)(C)NC(=O)[C@@H](N)Cc1ccc(O)cc1)[C@@H](C)O)[C@@H](C)O)C(C)C)[C@@H](C)CC)[C@@H](C)CC)C(=O)N[C@@H](CCCCNC(=O)COCCOCCNC(=O)COCCOCCNC(=O)CC[C@H](NC(=O)CCCCCCCCCOc1ccc(C(=O)O)cc1)C(=O)O)C(=O)NCC(=O)NCC(=O)N1CCC[C@H]1C(=O)N[C@@H](CO)C(=O)N[C@@H](CO)C(=O)NCC(=O)N[C@@H](C)C(=O)N1CCC[C@H]1C(=O)N1CCC[C@H]1C(=O)N1CCC[C@H]1C(=O)N[C@@H](CO)C(N)=O [Example 353]
Emax (hGIPR; HEK293, read-out: hGIPR Emax, % ± SEM, cAMP, 37° C., 0.1% bovine casein and 1.0% human serum albumin): 84.8% | Emax (hGIPR; HEK293, read-out: hGIPR Emax, % ± SEM, cAMP, 37° C., 0.1% bovine casein, arithmetic mean): 98.2% | EC50 (hGIPR; hGIPR EC50, nM (SEM, n), cAMP, 37° C., 0.1% bovine casein (no human serum albumin), geometric mean): 0.0249 nM | EC50 (hGCGR; hGCGR EC50, nM (SEM, n), cAMP, 0.1% bovine casein (no human serum albumin), geometric mean): > 9950 nM | EC50 (hGCGR; hGCGR EC50, nM (SEM, n), cAMP, 0.1% bovine casein and 1.0% human serum albumin, geometric mean (SEM, n)): > 9950 nM | Emax (hGLP-1R; HEK293, read-out: hGLP-1R Emax, % ± SEM, cAMP, 37° C., 0.1% bovine casein and 1.0% human serum albumin): 92.5% | Emax (hGLP-1R; HEK293, read-out: hGLP-1R Emax, % ± SEM, cAMP, 37° C., 0.1% bovine casein, arithmetic mean): 98% | EC50 (hGLP-1R; hGLP-1R EC50, nM (SEM, n), 37° C.): 0.203 nM

CC[C@H](C)[C@H](NC(=O)[C@H](CCCN)NC(=O)[C@H](CC(=O)O)NC(=O)[C@H](CC(C)C)NC(=O)[C@](C)(CC(C)C)NC(=O)[C@@H](NC(=O)C(C)(C)NC(=O)[C@H](Cc1ccc(O)cc1)NC(=O)[C@H](CC(=O)O)NC(=O)[C@H](CO)NC(=O)[C@@H](NC(=O)[C@](C)(Cc1ccccc1F)NC(=O)[C@@H](NC(=O)CNC(=O)[C@H](CCC(=O)O)NC(=O)C(C)(C)NC(=O)[C@@H](N)Cc1ccc(O)cc1)[C@@H](C)O)[C@@H](C)O)[C@@H](C)CC)C(=O)N[C@@H](C)C(=O)N[C@@H](CCC(N)=O)C(=O)NC(C)(C)C(=O)N[C@@H](CCCCNC(=O)COCCOCCNC(=O)CC[C@H](NC(=O)CCCCCCCCCCCCC(=O)O)C(=O)O)C(=O)N[C@@H](Cc1ccccc1)C(=O)N[C@H](C(=O)N[C@H](CCC(=O)O)C(=O)N[C@@](C)(Cc1ccc(O)cc1)C(=O)N[C@@H](CC(C)C)C(=O)N[C@H](C(=O)N[C@@H](CCC(=O)O)C(=O)NCC(=O)NCC(=O)N1CCC[C@H]1C(=O)N[C@@H](CO)C(=O)N[C@@H](CO)C(=O)NCC(=O)N[C@@H](C)C(=O)N1CCC[C@H]1C(=O)N1CCC[C@H]1C(=O)N1CCC[C@H]1C(=O)N[C@@H](CO)C(=O)N[C@@H](CCCCNC(=O)COCCOCCNC(=O)CC[C@H](NC(=O)CCCCCCCCCCCCC(=O)O)C(=O)O)C(N)=O)[C@@H](C)CC)[C@@H](C)CC [Example 371] (H-Y[Aib]EGT[αMePhe(2-F)]TSDY[Aib]I[αMeL]LD[Orn]IAQ[Aib]K([AEEA-γGlu-C14 diacid])FI[dE][αMeY]LIEGGPSSGAPPPSK([AEEA-γGlu-C14 diacid])-NH2)
EC50 (hGIPR; [2]): 0.0209 nM | EC50 (hGCGR; [3]): > 9950 nM | Emax (hGLP-1R; [4]): 112% | EC50 (hGLP-1R; [5]): 0.363 nM
